Measurements reported in paper PMC10046946, “Novel Phthalic-Based Anticancer Tyrosine Kinase Inhibitors: Design, Synthesis and Biological Activity” (Current Issues in Molecular Biology, 2023).
Entries after “also recorded” stand apart in the source; their conditions may differ.

Experiments:
[1] = system: RPMI 1788 cells (B lymphocyte, human); assay: MTT cell proliferation assay, normal RPMI 1788 cells; assay type: cell-based; conditions: normal human lymphoblastoid cells RPMI 1788, 72 h of exposition, read-out: Anti-proliferative activity IC50, RPMI 1788
Method in brief: (§1)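 Cell viability was measured by MTT assay and IC50 values were derived from it. Compounds were screened across six cancer lines, with RPMI 1788 human B lymphocytes serving as the normal-cell toxicity control.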

A549 (lung carcinoma) = assay: MTT cell proliferation assay, A549; assay type: cell-based; conditions: Homo sapiens, A549, 72 h of exposition, read-out: Anti-proliferative activity IC50, A549
Method in brief: as §1

[2] = system: OKP-GS (renal cell carcinoma); assay: MTT cell proliferation assay, OKP-GS; assay type: cell-based; conditions: 72 h of exposition, read-out: Anti-proliferative activity IC50, OKP-GS
Method in brief: as §1

[3] = system: K562 (chronic myelogenous leukemia); assay: MTT cell proliferation assay, K562; assay type: cell-based; conditions: Homo sapiens, K562, 72 h of exposition, read-out: Anti-proliferative activity IC50, K562
Method in brief: as §1

[4] = system: HL-60 (promyelocytic leukemia); assay: MTT cell proliferation assay, HL-60; assay type: cell-based; conditions: Homo sapiens, HL-60, 72 h of exposition, read-out: Anti-proliferative activity IC50, HL-60
Method in brief: as §1

[5] = system: cancer cell lines (K562, HL-60, MCF-7, HepG2, A549, OKP-GS); assay: MTT cell proliferation assay, statements over the whole cell line panel; assay type: cell-based; conditions: statement over the cell line panel, studied concentration range up to 50 µM
Method: Tests to determine the effects of the synthesized compounds on cell viability and the half-maximal inhibitory concentration (IC50) were performed using the MTT assay, as described in our prior work.
The target compounds 5, 6, 8–12, 14, 15, 17–22 and 24–26 were tested for antiproliferative activity against six cancer cell lines: K562 (chronic myelogenous leukemia), HL-60 (promyelocytic leukemia), MCF-7 (breast adenocarcinoma), HepG2 (human liver cancer), A549 (lung carcinoma) and OKP-GS (renal cell carcinoma). The RPMI 1788 cells (B lymphocyte, human) were used as a control to evaluate the system toxicity of the studied compounds to normal cells. Sorafenib, nilotinib and lapatinib were utilized as reference standards for comparison.

PDGFRβ = target: T1, PDGFRβ (Homo sapiens, UniProt P09619); assay: ADP-Glo kinase assay, PDGFRβ; assay type: biochemical
T1 construct: purchased Promega
Method in brief: (§2)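 Compounds were screened for kinase inhibition with the ADP-Glo luminescent ADP-detection assay, using a tyrosine kinase selectivity profiling panel and run per the kit protocol.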

PDGFRα = target: T2, PDGFRα (Homo sapiens, UniProt P16234); assay: ADP-Glo kinase assay, PDGFRα; assay type: biochemical
T2 construct: purchased Promega
T2 sequence (P16234 24-1089): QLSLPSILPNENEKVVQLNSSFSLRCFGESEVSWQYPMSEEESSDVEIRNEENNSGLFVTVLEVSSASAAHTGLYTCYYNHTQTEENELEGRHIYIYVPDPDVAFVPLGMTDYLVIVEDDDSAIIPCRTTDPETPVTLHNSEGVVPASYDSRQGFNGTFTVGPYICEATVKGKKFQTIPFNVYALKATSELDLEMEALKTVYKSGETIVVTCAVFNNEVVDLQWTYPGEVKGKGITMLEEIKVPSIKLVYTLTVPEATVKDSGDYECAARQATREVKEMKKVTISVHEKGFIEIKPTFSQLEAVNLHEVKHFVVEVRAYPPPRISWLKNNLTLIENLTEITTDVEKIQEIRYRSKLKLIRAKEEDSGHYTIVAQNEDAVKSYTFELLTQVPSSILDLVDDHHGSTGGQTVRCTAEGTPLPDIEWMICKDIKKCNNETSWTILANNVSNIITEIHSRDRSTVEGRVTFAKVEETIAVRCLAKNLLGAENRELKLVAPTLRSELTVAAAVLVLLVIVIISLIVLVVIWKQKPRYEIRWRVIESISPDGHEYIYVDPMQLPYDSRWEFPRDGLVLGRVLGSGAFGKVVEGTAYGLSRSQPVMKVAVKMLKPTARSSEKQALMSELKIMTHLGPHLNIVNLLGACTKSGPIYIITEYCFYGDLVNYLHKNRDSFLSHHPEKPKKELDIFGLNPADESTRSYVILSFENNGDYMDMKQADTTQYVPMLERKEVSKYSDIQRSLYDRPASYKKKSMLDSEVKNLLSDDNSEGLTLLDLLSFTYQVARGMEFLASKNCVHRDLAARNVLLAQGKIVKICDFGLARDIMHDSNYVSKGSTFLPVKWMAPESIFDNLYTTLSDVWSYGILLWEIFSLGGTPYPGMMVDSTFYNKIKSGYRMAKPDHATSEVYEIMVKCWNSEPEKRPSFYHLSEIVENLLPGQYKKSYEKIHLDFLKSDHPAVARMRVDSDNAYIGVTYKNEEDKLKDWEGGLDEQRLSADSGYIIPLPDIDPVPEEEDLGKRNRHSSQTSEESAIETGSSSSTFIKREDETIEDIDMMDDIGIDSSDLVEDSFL
Method in brief: as §2

InsR (insulin receptor) = target: T3, InsR (insulin receptor) (Homo sapiens, UniProt P06213); assay: ADP-Glo kinase assay, InsR; assay type: biochemical
T3 construct: purchased Promega
T3 sequence (P06213 28-1382): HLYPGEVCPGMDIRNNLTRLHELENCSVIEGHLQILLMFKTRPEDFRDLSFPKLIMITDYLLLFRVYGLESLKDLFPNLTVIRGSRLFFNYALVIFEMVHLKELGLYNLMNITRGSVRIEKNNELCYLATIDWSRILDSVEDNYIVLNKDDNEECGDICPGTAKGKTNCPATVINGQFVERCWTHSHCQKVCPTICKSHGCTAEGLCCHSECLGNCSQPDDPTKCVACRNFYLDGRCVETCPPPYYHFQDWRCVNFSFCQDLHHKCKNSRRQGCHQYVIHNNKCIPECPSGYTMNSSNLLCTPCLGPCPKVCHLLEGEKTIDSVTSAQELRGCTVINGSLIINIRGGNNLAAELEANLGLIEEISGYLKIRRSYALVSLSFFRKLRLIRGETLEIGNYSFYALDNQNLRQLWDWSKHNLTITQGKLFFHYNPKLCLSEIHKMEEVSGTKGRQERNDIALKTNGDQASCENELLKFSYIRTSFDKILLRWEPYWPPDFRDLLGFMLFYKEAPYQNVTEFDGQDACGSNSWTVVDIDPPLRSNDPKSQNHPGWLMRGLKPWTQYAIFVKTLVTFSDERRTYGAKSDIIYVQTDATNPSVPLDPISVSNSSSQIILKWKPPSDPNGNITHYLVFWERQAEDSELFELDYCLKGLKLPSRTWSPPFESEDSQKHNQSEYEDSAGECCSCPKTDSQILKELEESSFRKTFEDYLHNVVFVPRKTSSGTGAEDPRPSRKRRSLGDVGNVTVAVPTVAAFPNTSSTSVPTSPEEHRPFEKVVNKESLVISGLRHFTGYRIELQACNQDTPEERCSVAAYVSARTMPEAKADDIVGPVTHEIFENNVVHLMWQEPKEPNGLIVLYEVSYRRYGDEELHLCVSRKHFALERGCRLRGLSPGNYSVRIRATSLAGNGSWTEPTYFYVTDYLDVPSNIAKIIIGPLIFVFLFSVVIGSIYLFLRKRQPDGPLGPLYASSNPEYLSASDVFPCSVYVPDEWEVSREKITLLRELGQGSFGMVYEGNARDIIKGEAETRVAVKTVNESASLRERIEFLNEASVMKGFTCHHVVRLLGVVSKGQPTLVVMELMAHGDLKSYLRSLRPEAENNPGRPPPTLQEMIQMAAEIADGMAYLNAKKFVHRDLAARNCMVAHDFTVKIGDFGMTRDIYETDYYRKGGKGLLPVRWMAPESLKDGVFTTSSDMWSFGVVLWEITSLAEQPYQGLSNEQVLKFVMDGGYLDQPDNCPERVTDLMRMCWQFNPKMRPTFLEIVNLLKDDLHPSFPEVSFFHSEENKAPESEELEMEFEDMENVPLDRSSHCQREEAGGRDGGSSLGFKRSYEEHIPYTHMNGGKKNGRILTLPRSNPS
Method: (§3) The ADP-Glo kinase assay (Promega, Madison, WI, USA) was used to screen compounds 5, 8–10, 14, 17, 19 and 24 for the tyrosine kinase (Kinase Selectivity Profiling System TK-1, Promega, Madison, WI, USA) and serine/threonine kinase (Kinase Selectivity Profiling System Other/CK-1, Promega, Madison, WI, USA) inhibition effects according to the manufacturer’s technical manual. The luminescence data were analyzed as described in our prior work.
(§4) The selectivity of the potential kinase inhibitor against a specific protein kinase or a specific family of kinases was investigated using the Kinase Selectivity Profiling System TK-1, Other/CK-1 and ADP-Glo™ Kinase assay kit (Promega, Madison, WI, USA).

[6] = system: HepG2 (human liver cancer); assay: MTT cell proliferation assay, HepG2; assay type: cell-based; conditions: Homo sapiens, HepG2, 72 h, HepG2, 72 h of exposition, read-out: Anti-proliferative activity IC50, HepG2
Method in brief: as §1

K562 cells = assay: Cell cycle analysis (propidium iodide, flow cytometry); assay type: cell-based; conditions: 48 h
Method: Tumor cells were seeded on a 6-well plate at a density of 400,000 per well for K562. Test compounds 5, 14 and 15 were added at concentrations of 1, 5 and 10 μM in duplicate for 48 h. The methodology and analysis of the obtained data were performed as described in our prior work.
As shown above, compounds 5, 14 and 15 had significant antiproliferative activities, which is why their influences on the cell cycle and apoptosis level were determined, with the aim of understanding whether these effects are cytostatic or cytotoxic. In the cell cycle experiments, K562 cells were used. […] For the determination of changes in the distribution of cells in the phases of the cell cycle, the widely employed method of staining the cells with propidium iodide was used.

HER2 = target: T4, HER2 (Homo sapiens, UniProt P04626); assay: ADP-Glo kinase assay, HER2; assay type: biochemical
T4 construct: purchased Promega
Method: as §3, §4

[7] = system: MCF-7 (breast adenocarcinoma); assay: MTT cell proliferation assay, MCF-7; assay type: cell-based; conditions: Homo sapiens, MCF7, MCF-7, 72 h of exposition, read-out: Anti-proliferative activity IC50, MCF-7
Method in brief: as §1

[8] = target: T5, IGF1R (insulin-like growth factor 1 receptor) (Homo sapiens, UniProt P08069); assay: ADP-Glo kinase assay, IGF1R; assay type: biochemical
T5 construct: purchased Promega
T5 sequence (P08069 31-1367): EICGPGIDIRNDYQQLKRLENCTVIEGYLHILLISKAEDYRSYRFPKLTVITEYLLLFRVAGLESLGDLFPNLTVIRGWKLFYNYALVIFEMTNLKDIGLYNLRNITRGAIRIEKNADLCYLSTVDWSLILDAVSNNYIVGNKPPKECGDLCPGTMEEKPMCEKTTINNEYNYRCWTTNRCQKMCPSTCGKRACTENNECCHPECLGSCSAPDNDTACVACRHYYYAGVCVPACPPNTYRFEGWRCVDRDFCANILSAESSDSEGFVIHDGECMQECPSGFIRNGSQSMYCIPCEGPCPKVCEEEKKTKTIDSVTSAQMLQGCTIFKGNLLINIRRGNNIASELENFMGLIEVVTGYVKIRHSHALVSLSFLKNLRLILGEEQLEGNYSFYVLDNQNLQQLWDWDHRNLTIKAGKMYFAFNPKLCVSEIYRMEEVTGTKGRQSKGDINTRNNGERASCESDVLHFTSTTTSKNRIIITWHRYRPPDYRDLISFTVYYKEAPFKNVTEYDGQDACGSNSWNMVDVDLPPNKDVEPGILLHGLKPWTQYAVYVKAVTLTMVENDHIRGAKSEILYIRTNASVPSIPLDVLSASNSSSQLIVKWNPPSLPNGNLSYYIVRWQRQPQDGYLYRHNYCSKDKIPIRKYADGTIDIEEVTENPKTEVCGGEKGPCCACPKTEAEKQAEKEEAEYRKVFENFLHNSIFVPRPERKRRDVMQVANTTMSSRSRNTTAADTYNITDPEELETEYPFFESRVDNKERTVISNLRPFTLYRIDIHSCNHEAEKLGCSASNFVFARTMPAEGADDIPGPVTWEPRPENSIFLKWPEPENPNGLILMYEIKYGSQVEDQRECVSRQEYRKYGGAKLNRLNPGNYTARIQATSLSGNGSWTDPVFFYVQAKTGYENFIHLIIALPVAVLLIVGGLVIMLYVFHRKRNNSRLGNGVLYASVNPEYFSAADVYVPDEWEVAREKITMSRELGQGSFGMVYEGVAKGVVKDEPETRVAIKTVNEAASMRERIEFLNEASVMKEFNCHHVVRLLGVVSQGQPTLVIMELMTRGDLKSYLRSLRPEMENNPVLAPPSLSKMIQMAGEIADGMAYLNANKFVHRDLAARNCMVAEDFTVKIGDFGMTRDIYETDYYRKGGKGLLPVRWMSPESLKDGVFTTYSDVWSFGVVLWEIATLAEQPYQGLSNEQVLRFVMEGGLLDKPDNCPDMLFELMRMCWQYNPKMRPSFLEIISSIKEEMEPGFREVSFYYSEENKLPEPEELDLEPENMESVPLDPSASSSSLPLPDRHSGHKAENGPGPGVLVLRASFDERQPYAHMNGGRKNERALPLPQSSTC
Method: as §3, §4

K562 cell line = assay: ROS determination (DCFH-DA, flow cytometry); assay type: cell-based; conditions: 48 h
Method: The redox status was assessed using the K562 cell line. […] Then, the cells were washed to remove the 2′,7′-dichlorodihydrofluorescein diacetate by centrifugation at 1000 rpm for 5 min. The measurements were conducted using a Cytomics FC500 Beckman Coulter flow cytometer (FL1 channel for DCF).

HER4 = target: T6, HER4 (Homo sapiens, UniProt Q15303); assay: ADP-Glo kinase assay, HER4; assay type: biochemical
T6 construct: purchased Promega
T6 sequence (Q15303 26-1308): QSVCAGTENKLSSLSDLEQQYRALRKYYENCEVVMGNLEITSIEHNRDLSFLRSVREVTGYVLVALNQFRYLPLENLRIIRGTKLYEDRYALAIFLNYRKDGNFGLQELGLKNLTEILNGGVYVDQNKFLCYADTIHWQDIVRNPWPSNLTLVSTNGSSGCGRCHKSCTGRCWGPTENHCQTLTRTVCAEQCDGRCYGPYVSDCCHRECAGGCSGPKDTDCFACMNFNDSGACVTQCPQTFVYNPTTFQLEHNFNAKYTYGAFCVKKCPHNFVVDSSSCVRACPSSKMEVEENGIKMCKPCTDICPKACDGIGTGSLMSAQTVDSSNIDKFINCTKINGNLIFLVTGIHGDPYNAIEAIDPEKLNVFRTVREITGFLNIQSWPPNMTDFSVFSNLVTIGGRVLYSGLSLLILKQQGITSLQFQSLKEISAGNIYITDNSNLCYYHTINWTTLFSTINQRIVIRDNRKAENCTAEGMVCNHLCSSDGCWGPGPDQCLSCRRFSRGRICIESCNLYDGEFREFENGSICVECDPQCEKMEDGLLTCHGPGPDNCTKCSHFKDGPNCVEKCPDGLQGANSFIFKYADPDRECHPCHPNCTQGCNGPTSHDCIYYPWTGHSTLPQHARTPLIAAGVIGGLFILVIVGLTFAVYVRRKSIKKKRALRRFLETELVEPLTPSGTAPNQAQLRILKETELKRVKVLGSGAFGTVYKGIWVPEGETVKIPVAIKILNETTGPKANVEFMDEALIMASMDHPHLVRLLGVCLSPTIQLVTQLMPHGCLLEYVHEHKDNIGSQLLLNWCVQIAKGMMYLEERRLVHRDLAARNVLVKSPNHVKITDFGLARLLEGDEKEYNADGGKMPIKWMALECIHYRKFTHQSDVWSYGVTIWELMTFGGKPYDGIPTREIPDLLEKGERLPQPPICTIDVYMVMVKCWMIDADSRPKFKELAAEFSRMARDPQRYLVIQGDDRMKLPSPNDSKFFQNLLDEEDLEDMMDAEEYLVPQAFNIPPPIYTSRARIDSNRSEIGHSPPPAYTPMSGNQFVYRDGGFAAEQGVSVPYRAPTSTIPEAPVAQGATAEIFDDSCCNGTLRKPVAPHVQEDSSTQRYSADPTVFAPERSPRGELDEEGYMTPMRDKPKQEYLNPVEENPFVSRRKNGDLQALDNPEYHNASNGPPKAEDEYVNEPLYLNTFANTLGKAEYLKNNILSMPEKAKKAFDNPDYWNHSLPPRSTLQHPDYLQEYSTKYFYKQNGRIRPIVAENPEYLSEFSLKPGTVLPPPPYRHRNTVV
Method: as §3, §4

KDR (VEGFR-2) = target: T7, KDR (VEGFR-2) (Homo sapiens, UniProt P35968); assay: ADP-Glo kinase assay, KDR; assay type: biochemical
T7 construct: purchased Promega

Aurora A = target: T8, Aurora A (Homo sapiens, UniProt O14965); assay: ADP-Glo kinase assay, Aurora A; assay type: biochemical
T8 construct: purchased Promega
T8 sequence (O14965 1-403): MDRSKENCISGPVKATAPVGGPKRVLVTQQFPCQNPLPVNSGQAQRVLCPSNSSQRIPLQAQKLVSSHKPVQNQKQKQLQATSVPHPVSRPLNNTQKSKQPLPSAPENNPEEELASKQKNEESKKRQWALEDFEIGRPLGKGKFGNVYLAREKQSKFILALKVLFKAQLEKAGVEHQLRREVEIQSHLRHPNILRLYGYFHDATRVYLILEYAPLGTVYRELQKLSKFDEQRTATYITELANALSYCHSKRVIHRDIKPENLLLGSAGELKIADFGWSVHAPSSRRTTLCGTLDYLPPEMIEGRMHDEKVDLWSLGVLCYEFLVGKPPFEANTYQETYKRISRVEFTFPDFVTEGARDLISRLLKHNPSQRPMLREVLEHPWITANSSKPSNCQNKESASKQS
Method: as §3, §4

Aurora B = target: T9, Aurora B (Homo sapiens, UniProt Q96GD4); assay: ADP-Glo kinase assay, Aurora B; assay type: biochemical
T9 construct: purchased Promega
Method: as §3, §4

EGFR = target: T10, EGFR (Homo sapiens, UniProt P00533); assay: ADP-Glo kinase assay, EGFR; assay type: biochemical
T10 construct: purchased Promega

Row | Compound | IC50 [1] | IC50 (A549 (lung carcinoma)) | IC50 [2] | IC50 [3] | IC50 [4] | inhibition at 10 µM (PDGFRβ) | inhibition at 10 µM (PDGFRα) | inhibition at 10 µM (InsR (insulin receptor)) | IC50 [6] | inhibition at 10 µM (HER2) | IC50 [7] | inhibition at 10 µM [8] | inhibition at 10 µM (HER4) | melting point | Antiproliferative activity (IC50) over the studied cell cultures [5] | further results
1 | CS(=O)(=O)CCNCc1ccc(-c2ccc3ncnc(Nc4ccc(OCc5cccc(F)c5)c(Cl)c4)c3c2)o1 [Lapatinib, reference compound] | 9.31 ± 0.9 µM | 18.6 ± 2.65 µM | 7.32 ± 2.15 µM | 9.62 ± 1.56 µM | 10.6 ± 1.02 µM | 10% | 2% | 0% | 27.1 ± 0.08 µM | 76% | 10.9 ± 0.34 µM | 0% | 100% |  |  | IC50 ([5]; read-out: Antiproliferative activity (IC50) over the studied cell cultures): 2 to 27 µM; Apoptosis, % (cell cycle analysis) (K562 cells; K562, 1 µM): 14.74%; G1, % (K562 cells; K562, 1 µM): 34.47%; G2/M, % (K562 cells; K562, 1 µM): 52.23%; S, % (K562 cells; K562, 1 µM): 13.31%; Apoptosis, % (cell cycle analysis) (K562 cells; K562, 5 µM): 28.92%; G1, % (K562 cells; K562, 5 µM): 31.31%; G2/M, % (K562 cells; K562, 5 µM): 55.68%; S, % (K562 cells; K562, 5 µM): 13.02%; ROS Level, % of Control (K562 cell line; K562, 5 µM): 64.12 % of Control; ROS Level, % of Control (K562 cell line; K562, 10 µM): 72.23 % of Control; ROS Level, % of Control (K562 cell line; K562, 20 µM): 89.07 % of Control
2 | Cc1cn(-c2cc(NC(=O)c3ccc(C(=O)Nc4cccc(C(F)(F)F)c4)cc3)cc(C(F)(F)F)c2)cn1 [Compound 17, N1-(3-(4-methyl-1H-imidazol-1-yl)-5-(trifluoromethyl)phenyl)-N4-(3-(trifluoromethyl)phenyl)-terephthalamide] | > 50 µM | > 50 µM | > 50 µM | 15.6 µM | > 50 µM | 15% | ≤ 20% | 0% | > 50 µM | 13% | > 50 µM | 0% | 0% | 208 to 210 °C | practically did not affect the cell lines’ viability; also recorded: almost no effect on the cell lines’ viability | inhibition at 10 µM (KDR (VEGFR-2)): 0%; inhibition at 10 µM (Aurora A): 0%; inhibition at 10 µM (Aurora B): 0%; inhibition at 10 µM (EGFR): 0%
3 | Cc1cn(-c2cc(NC(=O)c3cccc(C(=O)Nc4cc([N+](=O)[O-])ccc4C)c3)cc(C(F)(F)F)c2)cn1 [Compound 12, N1-(3-(4-methyl-1H-imidazol-1-yl)-5-(trifluoromethyl)phenyl)-N3-(2-methyl-5-nitrophenyl)isophthalamide] | 2.36 ± 1.13 µM | > 50 µM | 27.5 ± 2.58 µM | > 50 µM | > 50 µM |  |  |  | > 50 µM |  | > 50 µM |  |  | 290 to 292 °C | lack of sensitivity of the cancer cells in the studied concentration range | 
